Assay results as given in patent US20260306464A1, “LINAPRAZAN GLURATE FOR TREATING GASTROESOPHAGEAL REFLUX DISEASE (GERD)” (Cinclus Pharma Holding AB (publ), priority 2023, published 2026).

Tests used:
[1] = test system: gastric hydrogen potassium pump (H+/K+ ATPase); details: healthy subjects; cited from earlier work
[2] = Plasma pharmacokinetics / metabolism of linaprazan glurate; type: in vivo
intragastric pH [3] = assay: Phase I: plasma concentration of linaprazan vs. intragastric pH; type: in vivo, human; details: Phase I studies
Excerpt: The plasma concentration of linaprazan glurate is only very low and difficult to determine, but the plasma concentration of linaprazan may be determined instead.

[4] = background statement; cited from earlier work
intragastric pH [5] = assay: 48-hour intragastric pH-metry, Phase 1 exploratory dose-finding study in healthy subjects; type: in vivo, human; details: for Hours with pH >4 (Mean (SD)) / Hours with pH >4 (Median (min, max)) / Percentage of time with pH >4 (Mean) / Percentage of time with pH >4 (Median (min, max)): healthy subjects
Excerpt: The study was a single-centre, open-label, parallel-group, randomised exploratory dose-finding study designed to evaluate the PK, PD, safety and tolerability of repeated oral doses of linaprazan glurate (LG) at 3 dose levels, in healthy male and female subjects. About 36 subjects were randomised for an estimated total of 12 evaluable subjects per treatment arm.
Subjects came to the clinic for 3 visits. The screening (Visit 1) took place from Day −28 to Day −1 and included an eligibility check and review of health status. At Visit 2, subjects were admitted to the clinic on Day −1 and remained at the clinic until Day 4 for repeated dose of LG administration and safety, PK and PD assessments. The subjects fasted for at least 8 hours before the anticipated dosing time on Day 1. Water, but no other drinks, was allowed as desired except for 1 hour before and 30 minutes after dosing. In the morning of Day 1, subjects were randomised to one of 3 treatment arms: • LG 50 mg BID for 3 days (5 doses, last dose in the morning of Day 3) • LG 100 mg (2×50 mg) BID for 3 days (5 doses, last dose in the morning of Day 3) • LG 150 mg (3×50 mg) BID for 3 days (5 doses, last dose in the morning of Day 3)
Subjects were carefully monitored by clinical staff during and after dosing. […] The pH-metry assessment was started prior to Dose 3 (in the morning of Day 2) and continued for 48 hours, until 24 hours post last dose. Vital signs and ECG were checked at regular intervals and PK sampling was done at selected timepoints. A final end-of-study visit (Visit 3) took place on Day 7 (±2) or after early withdrawal. Each subject was expected to participate in the study for approximately 7 days from the day of randomisation (Day 1, Visit 2) to the End-of Study Visit. The Screening Visit was performed within 28 days prior to randomisation (Day −28 to Day −1).

[6] = 50 mg LG, 1 last dose in the morning (Day 3, "QD")
[7] = 50 mg LG, 2 doses (Day 2, BID), oral
[8] = 100 mg LG, 1 last dose in the morning (Day 3, "QD")
[9] = 100 mg LG, 2 doses (Day 2, BID), oral
[10] = 150 mg LG, 1 last dose in the morning (Day 3, "QD")
[11] = 150 mg LG, 2 doses (Day 2, BID), oral
[12] = 100 or 150 mg, two daily doses (Day 2) vs once daily (Day 3)

Cc1cccc(C)c1CNc1cc(C(=O)NCCOC(=O)CCCC(=O)O)cn2c(C)c(C)nc12 [linaprazan glurate, 5-{2-[({8-[(2,6-dimethylbenzyl)amino]-2,3-dimethylimidazo[1,2-a]pyridine-6-yl}carbonyl)-amino]ethoxy}-5-oxopentanoic acid]
intragastric pH two hours after the first dose [1]: Neutral intragastric pH
plasma concentration of linaprazan glurate ([2]; following absorption): very low
metabolism into linaprazan ([2]; following absorption into the blood stream): quickly metabolized into linaprazan
pH control (intragastric pH [3]): dose dependent
plasma half-life [4]: approximately 10 hours
Hours with pH >4 (Mean (SD)) (intragastric pH [5]; [6]): 17.04 (5.33) hours
Hours with pH >4 (Median (min, max)) (intragastric pH [5]; [6]): 15.80 (6.8, 23.8) hours
Percentage of time with pH >4 (Mean) (intragastric pH [5]; [6]): 71.15%
Percentage of time with pH >4 (Median (min, max)) (intragastric pH [5]; [6]): 65.90 (28.6, 99.8) %
Hours with pH >4 (Mean (SD)) (intragastric pH [5]; [7]): 15.47 (4.83) hours
Hours with pH >4 (Median (min, max)) (intragastric pH [5]; [7]): 15.65 (8.5, 23.8) hours
Percentage of time with pH >4 (Mean) (intragastric pH [5]; [7]): 64.48%
Percentage of time with pH >4 (Median (min, max)) (intragastric pH [5]; [7]): 65.20 (35.4, 99.1) %
Hours with pH >4 (Mean (SD)) (intragastric pH [5]; [8]): 18.38 (3.84) hours
Hours with pH >4 (Median (min, max)) (intragastric pH [5]; [8]): 19.30 (11.6, 23.5) hours
Percentage of time with pH >4 (Mean) (intragastric pH [5]; [8]): 76.81%
Percentage of time with pH >4 (Median (min, max)) (intragastric pH [5]; [8]): 80.50 (48.9, 97.8) %
Hours with pH >4 (Mean (SD)) (intragastric pH [5]; [9]): 18.93 (4.83) hours
Hours with pH >4 (Median (min, max)) (intragastric pH [5]; [9]): 21.30 (7.0, 22.8) hours
Percentage of time with pH >4 (Mean) (intragastric pH [5]; [9]): 78.85%
Percentage of time with pH >4 (Median (min, max)) (intragastric pH [5]; [9]): 88.70 (29.1, 95.0) %
Hours with pH >4 (Mean (SD)) (intragastric pH [5]; [10]): 20.38 (3.51) hours
Hours with pH >4 (Median (min, max)) (intragastric pH [5]; [10]): 21.05 (15.5, 24.0) hours
Percentage of time with pH >4 (Mean) (intragastric pH [5]; [10]): 85.14%
Percentage of time with pH >4 (Median (min, max)) (intragastric pH [5]; [10]): 88.00 (64.9, 99.8) %
Hours with pH >4 (Mean (SD)) (intragastric pH [5]; [11]): 22.00 (2.60) hours
Hours with pH >4 (Median (min, max)) (intragastric pH [5]; [11]): 23.05 (16.6, 24.0) hours
Percentage of time with pH >4 (Mean) (intragastric pH [5]; [11]): 91.64%
Percentage of time with pH >4 (Median (min, max)) (intragastric pH [5]; [11]): 96.05 (69.3, 99.8) %
additional hours with pH>4 (median), BID vs QD (intragastric pH [5]; [12]): about two
longer time with pH>4, BID vs QD (intragastric pH [5]; [12]): about 10%
